One experiment relates to HL-60. In words: Inhibitory activity on the proliferation of Human myeloid leukemia HL-60 cancer cells using MTT or sulforhodamine B assay. The format is functional, cell-based.
Experiment [1] can be described thus: Inhibitory activity on the proliferation of Human colon carcinoma […] cancer cells using MTT or sulforhodamine B assay. The format is functional, cell-based. Conditions: Cancer cell lines.
Experiment [2] concerns A549. In words: Inhibitory activity on the proliferation of Human lung carcinoma A549 cancer cells using MTT or sulforhodamine B assay. In kind it is functional, cell-based.
The subject of another experiment is HT-1080. Nature of the experiment: Inhibitory activity on the proliferation of Human fibrosarcoma HT1080 cancer cells using MTT or sulforhodamine B assay. In kind it is functional, cell-based.
Experiment [3] concerns A549. In words: Effect of compound on cell cycle progression in Human lung A549 cancer cells at Sub-G0 phase after 8 hours of administration. In kind it is functional.
Experiment [4] deals with A549. Nature of the experiment: Effect of compound on cell cycle progression in Human lung A549 cancer cells at G0/G1 phase after 8 hours of administration. The format is functional.
Experiment [5] has as its system A549. In words: Effect of compound on cell cycle progression in Human lung A549 cancer cells at G2/M phase after 24 hours of administration. The format is functional.
The subject of experiment [6] is A549. Nature of the experiment: Effect of compound on cell cycle progression in Human lung A549 cancer cells at G0/G1 phase after 24 hours of administration. In kind it is functional.
Experiment [7] relates to A549. Nature of the experiment: Effect of compound on cell cycle progression in Human lung A549 cancer cells at G2/M phase after 16 hours of administration. In kind it is functional.
For experiment [8], the system named is A549. Nature of the experiment: Effect of compound on cell cycle progression in Human lung A549 cancer cells at G2/M phase after 8 hours of administration. In kind it is functional.
Experiment [9] deals with A549. In words: Effect of compound on cell cycle progression in Human lung A549 cancer cells at S phase after 16 hours of administration. In kind it is functional.
In experiment [10] the test system is A549. In words: Effect of compound on cell cycle progression in Human lung A549 cancer cells at Sub-G0 phase after 16 hours of administration. In kind it is functional.
The test system of experiment [11] is A549. Nature of the experiment: Effect of compound on cell cycle progression in Human lung A549 cancer cells at Sub-G0 phase after 24 hours of administration. In kind it is functional.
Experiment [12] concerns A549. In words: Effect of compound on cell cycle progression in Human lung A549 cancer cells at S phase after 8 hours of administration. In kind it is functional.
For experiment [13], the system named is A549. Nature of the experiment: Effect of compound on cell cycle progression in Human lung A549 cancer cells at G0/G1 phase after 16 hours of administration. In kind it is functional.
For experiment [14], the system named is A549. In words: Effect of compound on cell cycle progression in Human lung A549 cancer cells at S phase after 24 hours of administration. In kind it is functional.

For the molecule `O=C1C(c2c(O)[nH]c3ccc(S(=O)(=O)O)cc23)=Nc2ccccc21`, the IC50 (with HL-60; in experiment [1]; with A549 [2]; in the experiment with HT-1080) was > 100 µM in each case.

For the molecule `O=Nc1c(-c2c(O)[nH]c3ccc([N+](=O)[O-])cc23)[nH]c2ccccc12`, the Activity in the experiment with A549 [3] is listed as 0%; with A549 [4], 46.1%; in the experiment on A549 [5], 22%; with A549 [6] it was 39.9%; in the experiment with A549 [7] it was 21.7%; in the experiment with A549 [8], 27.1%. For the same molecule, the Activity with A549 [9] amounted to 31.8%; in the experiment with A549 [10], 0%; in the experiment with A549 [11] it was 22%; in the experiment on A549 [12], 26.8%; in the experiment on A549 [13] it was 46.5%; with A549 [14] it was 16.1%. The 50% inhibitory concentration (IC50) in the experiment on HL-60 is 9.2 µM; in [1], 25.5 µM; with A549 [2] it was 5.4 µM; in the experiment on HT-1080, 5.9 µM.

As to `O=Nc1c(-c2c(O)[nH]c3ccccc23)[nH]c2ccccc12` [INDIRUBIN-3-MONOXIME], the half-maximal inhibitory concentration (IC50) is > 100 µM in the experiment with HL-60, > 100 µM in experiment [1], 62 µM in the experiment on A549 [2] and 4.8 µM in the experiment with HT-1080.

In the case of `O=C1Nc2ccccc2/C1=C1/Nc2ccccc2C1=O` [INDIRUBIN], the IC50 with HL-60 is > 100 µM; in [1] it was > 100 µM; with A549 [2], 31 µM; in the experiment with HT-1080, 42.2 µM.

The record behind these values is ChEMBL document CHEMBL1140278, “Induction of apoptosis by a novel indirubin-5-nitro-3'-monoxime, a CDK inhibitor, in human lung cancer cells” (Bioorg Med Chem Lett, 2005).
